Data published in PubChem BioAssay AID330 (DTP/NCI, 2004).
Values joined by “and” are separate entries in the source; they are usually repeats but may differ in a detail not shown here. Equal values may be shown once. Toxic doses and inconclusive results are not listed. The calls were made as follows: active = survival T/C of 150% or more; inactive = T/C below 125% in these data.

Test system: P388 leukemia ip, CD2F1 mice, survival T/C
Assay: NCI In Vivo Anticancer Drug Screen. Data for tumor model P388 Leukemia (intraperitoneal) in CD2F1 (CDF1) mice
Conditions: endpoint: median survival time, higher = longer survival
How it was run: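 Mice carrying the transplanted tumor received test compound or vehicle. Survival was recorded in each group, and the value is the treated-group measurement divided by that of the vehicle-treated control group.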

[1] = dose: 50.0 mg/kg/injection, schedule: Q01DX005 (ip), vehicle: Klucel (hydroxypropylcellulose) (HPC)
[2] = dose: 100.0 mg/kg/injection, schedule: Q01DX005 (ip), vehicle: Klucel (hydroxypropylcellulose) (HPC)
[3] = dose: 200.0 mg/kg/injection, schedule: Q01DX005 (ip), vehicle: Klucel (hydroxypropylcellulose) (HPC)
[4] = dose: 120.0 mg/kg/injection, schedule: Q01DX005 (ip), vehicle: saline with Tween-80
[5] = dose: 50.0 mg/kg/injection, schedule: Q01DX009 (ip), vehicle: saline with Tween-80

Measured: T/C

O=C(O)c1ccccc1C(=O)O.[Cu+2].[NH-]CCC[NH-]
inactive: dose: 12.5 mg/kg/injection, schedule: Q04DX002 (ip), vehicle: saline with Tween-80 115 % of control

O=C1c2ccccc2C(=O)N1/N=N/N1C(=O)c2ccccc2C1=O
inactive: dose: 25.0 mg/kg/injection, schedule: Q01DX005 (ip), vehicle: Klucel (hydroxypropylcellulose) (HPC) 99 % of control | [1] 102 % of control | [2] 110 % of control | [3] 106 % of control

CSC(SC)(C(=O)O)c1cc(-c2c(Cl)cccc2Cl)no1
inactive: dose: 60.0 mg/kg/injection, schedule: Q01DX005 (ip), vehicle: saline with Tween-80 93 % of control | [4] 102 % of control

COC(=O)C[CH2][Sn]([Cl])([Cl])[Cl]
inactive: dose: 25.0 mg/kg/injection, schedule: Q04DX003 (ip), vehicle: saline 98 % of control | dose: 50.0 mg/kg/injection, schedule: Q04DX003 (ip), vehicle: saline 100 % of control | dose: 100.0 mg/kg/injection, schedule: Q04DX003 (ip), vehicle: saline 100 % of control and 96 % of control

CCOc1ccc2c(c1)c(C)cc(C)[n+]2CC
inactive: dose: 6.25 mg/kg/injection, schedule: Q04DX003 (ip), vehicle: saline with Tween-80 97 % of control | dose: 12.5 mg/kg/injection, schedule: Q04DX003 (ip), vehicle: saline with Tween-80 99 % of control

Cc1cc(=O)[nH]c2c(C)c(N)ccc12
inactive: dose: 25.0 mg/kg/injection, schedule: Q01DX005 (ip), vehicle: saline with Tween-80 95 % of control | dose: 50.0 mg/kg/injection, schedule: Q01DX005 (ip), vehicle: saline with Tween-80 104 % of control | dose: 100.0 mg/kg/injection, schedule: Q01DX005 (ip), vehicle: saline with Tween-80 95 % of control

COc1cc2c(c(OC(C)=O)c1OC)-c1ccc(OC)c(=O)cc1[C@@H](NC(C)=O)CC2
inactive: dose: 1.25 mg/kg/injection, schedule: Q01DX009 (ip), vehicle: Klucel (hydroxypropylcellulose) (HPC) 94 % of control | dose: 2.5 mg/kg/injection, schedule: Q01DX009 (ip), vehicle: Klucel (hydroxypropylcellulose) (HPC) 92 % of control | dose: 5.0 mg/kg/injection, schedule: Q01DX009 (ip), vehicle: Klucel (hydroxypropylcellulose) (HPC) 100 % of control | dose: 10.0 mg/kg/injection, schedule: Q01DX009 (ip), vehicle: Klucel (hydroxypropylcellulose) (HPC) 100 % of control | dose: 20.0 mg/kg/injection, schedule: Q01DX009 (ip), vehicle: Klucel (hydroxypropylcellulose) (HPC) 109 % of control

CC1(C)C2CCC(C2)C1/C=C1/SC(=S)NC1=O (centres undefined)
inactive: [1] 99 % of control | [2] 100 % of control | [3] 100 % of control

CCCN=Cc1ccccc1O.CCCN=Cc1ccccc1O.[Cu]
inactive: dose: 3.75 mg/kg/injection, schedule: Q01DX005 (ip), vehicle: Klucel (hydroxypropylcellulose) (HPC) 100 % of control | dose: 7.5 mg/kg/injection, schedule: Q01DX005 (ip), vehicle: Klucel (hydroxypropylcellulose) (HPC) 104 % of control | dose: 15.0 mg/kg/injection, schedule: Q01DX005 (ip), vehicle: Klucel (hydroxypropylcellulose) (HPC) 97 % of control | dose: 30.0 mg/kg/injection, schedule: Q01DX005 (ip), vehicle: Klucel (hydroxypropylcellulose) (HPC) 92 % of control and 97 % of control | dose: 60.0 mg/kg/injection, schedule: Q01DX005 (ip), vehicle: Klucel (hydroxypropylcellulose) (HPC) 108 % of control and 115 % of control

Cc1ccccc1N1C(=O)[N+]2(CCCCC2)N=C1[O-]
inactive: dose: 100.0 mg/kg/injection, schedule: Q04DX003 (ip), vehicle: saline with Tween-80 99 % of control | dose: 200.0 mg/kg/injection, schedule: Q04DX003 (ip), vehicle: saline with Tween-80 100 % of control | dose: 400.0 mg/kg/injection, schedule: Q04DX003 (ip), vehicle: saline with Tween-80 92 % of control

CCOc1cccc(Cl)n1
inactive: [5] 104 % of control | dose: 100.0 mg/kg/injection, schedule: Q01DX009 (ip), vehicle: saline with Tween-80 100 % of control | dose: 200.0 mg/kg/injection, schedule: Q01DX009 (ip), vehicle: saline with Tween-80 90 % of control

CN(C)c1ccc(C(=C2C=CC(=[N+](C)C)C=C2)c2ccc(N(C)C)cc2)cc1 (tested in a mixture with another compound)
inactive: dose: 0.62 mg/kg/injection, schedule: Q01DX009 (ip), vehicle: saline with Tween-80 122 % of control | dose: 2.5 mg/kg/injection, schedule: Q01DX009 (ip), vehicle: saline with Tween-80 120 % of control

COc1cc2cc3cc(-c4ccc(Cl)cc4)c(N4CCOCC4)nc3nc2cc1OC
inactive: dose: 15.0 mg/kg/injection, schedule: Q01DX005 (ip), vehicle: saline with Tween-80 92 % of control | dose: 30.0 mg/kg/injection, schedule: Q01DX005 (ip), vehicle: saline with Tween-80 93 % of control | [4] 91 % of control | dose: 240.0 mg/kg/injection, schedule: Q01DX005 (ip), vehicle: saline with Tween-80 93 % of control

On1cccc2c(Br)cnc1-2
inactive: dose: 100.0 mg/kg/injection, schedule: Q01DX001 (ip), vehicle: saline with Tween-80 98 % of control | dose: 200.0 mg/kg/injection, schedule: Q01DX001 (ip), vehicle: saline with Tween-80 99 % of control | dose: 400.0 mg/kg/injection, schedule: Q01DX001 (ip), vehicle: saline with Tween-80 90 % of control

O=C(CCl)c1ccc([N+](=O)[O-])cc1
inactive: dose: 1.56 mg/kg/injection, schedule: Q01DX005 (ip), vehicle: Klucel (hydroxypropylcellulose) (HPC) 100 % of control | dose: 3.12 mg/kg/injection, schedule: Q01DX005 (ip), vehicle: Klucel (hydroxypropylcellulose) (HPC) 100 % of control | dose: 6.25 mg/kg/injection, schedule: Q01DX005 (ip), vehicle: Klucel (hydroxypropylcellulose) (HPC) 108 % of control | dose: 12.5 mg/kg/injection, schedule: Q01DX005 (ip), vehicle: Klucel (hydroxypropylcellulose) (HPC) 89 % of control and 98 % of control | [5] 116 % of control

CCOC(=O)NCC(C)(C)CNC(=O)OCC
inactive: dose: 3.13 mg/kg/injection, schedule: Q01DX009 (ip), vehicle: saline 100 % of control | dose: 6.25 mg/kg/injection, schedule: Q01DX009 (ip), vehicle: saline 105 % of control | dose: 12.5 mg/kg/injection, schedule: Q01DX009 (ip), vehicle: saline 105 % of control | dose: 25.0 mg/kg/injection, schedule: Q01DX009 (ip), vehicle: saline 103 % of control

Cc1ccc(NC(=S)SCc2ccc(Cl)cc2)cc1Br
inactive: dose: 50.0 mg/kg/injection, schedule: Q01DX009 (ip), vehicle: Klucel (hydroxypropylcellulose) (HPC) 105 % of control and 123 % of control | dose: 50.0 mg/kg/injection, schedule: Q01DX009 (ip), vehicle: suspension in saline 109 % of control | dose: 100.0 mg/kg/injection, schedule: Q01DX009 (ip), vehicle: Klucel (hydroxypropylcellulose) (HPC) 114 % of control | dose: 100.0 mg/kg/injection, schedule: Q01DX009 (ip), vehicle: suspension in saline 104 % of control | dose: 200.0 mg/kg/injection, schedule: Q01DX009 (ip), vehicle: Klucel (hydroxypropylcellulose) (HPC) 121 % of control and 122 % of control | dose: 200.0 mg/kg/injection, schedule: Q01DX009 (ip), vehicle: suspension in saline 90 % of control

C=C(C)C1CC=C(C)C(CCC2C(=C)CCC3C(C)(C)C(OC4OC(CO)C(O)C(O)C4NC(C)=O)CCC23C)C1(C)CCC(=O)O (centres undefined)
inactive: dose: 35.75 mg/kg/injection, schedule: Q01DX005 (ip), vehicle: Klucel (hydroxypropylcellulose) (HPC) 91 % of control | dose: 71.5 mg/kg/injection, schedule: Q01DX005 (ip), vehicle: Klucel (hydroxypropylcellulose) (HPC) 87 % of control | dose: 143.0 mg/kg/injection, schedule: Q01DX005 (ip), vehicle: Klucel (hydroxypropylcellulose) (HPC) 97 % of control

CCCCNc1cc(C(F)(F)F)cc(N)c1N
inactive: dose: 50.0 mg/kg/injection, schedule: Q01DX005 (ip), vehicle: saline + Tween-80 + alcohol 105 % of control | dose: 100.0 mg/kg/injection, schedule: Q01DX005 (ip), vehicle: saline + Tween-80 + alcohol 108 % of control | dose: 200.0 mg/kg/injection, schedule: Q01DX005 (ip), vehicle: saline + Tween-80 + alcohol 109 % of control
